Measured values taken from US10688086B2, “Method for treating cancer with dihydropyridine calcium antagonist” (GERMARK BIOTECHNOLOGY CO., LTD, priority 2016, dated 2020).

How the values were obtained:
cancer patients = experiment: NHIRD statistical analysis, cancer patients overall; type: in vivo, human
Procedure: In this example, statistical analysis was performed on the statistics of the effects of Amlodipine in the treatment of cancers, using data from the National Health Insurance Research Database (NHIRD) covering detailed healthcare data for the population in Taiwan. Then, the diagnostic data at the time of admission in the database and the database of patients with registered major injuries were used, and statistical analysis was performed using data from patients with gastric cancer.
The dose of Amlodipine used in Example 1 was at least 120 mg/30 days. Therefore, in order to obtain the minimum effective dose, the survival rate of patients treated with Amlodipine for days in 90 days after cancer diagnosis was further statistically analyzed.

[1] = tested on: patients having colorectal cancer; experiment: NHIRD statistical analysis of death/survival with vs without Amlodipine, colorectal cancer; type: in vivo, human
Hep3B cells [2] = experiment: Western blotting of apoptosis-related proteins, Hep3B; type: cell-based; conditions: various concentrations, 24 hours
Procedure: The expression of apoptosis-related genes in each liver cancer cell line treated with various concentrations of Amlodipine for 24 hours were detected by Western blotting.

[3] = tested on: patients having lung cancer; experiment: NHIRD statistical analysis of death/survival with vs without Amlodipine, lung cancer; type: in vivo, human
[4] = tested on: patients having liver cancer; experiment: NHIRD statistical analysis of death/survival with vs without Amlodipine, liver cancer; type: in vivo, human
Hep3B cells [5] = experiment: Cell viability (WST-1 72 hrs; PI flow cytometry 48 hrs), Hep3B; type: cell-based
Procedure: Two liver cancer cell lines HepG2 and Hep3B were cultured. The medium used for the culture of the cells was DMEM medium containing 10% fetal bovine serum, 10,000 U/ml penicillin and 10,000 μg/ml streptomycin. The culture occurred in an environment at 37° C. with 5% CO2, and the medium was changed every 2-3 days during the culture. After the cells were cultured to about 70% confluence, they were treated with various concentrations of Amlodipine: 0, 1.5625, 3.125, 6.25, 12.5, 25, and 50 μM for various times: 48, and 72 hrs. After the experiment, the viability of each liver cancer cell line was observed and the cell viability and cell cycle were analyzed. The HepG2 and Hep3B cells treated with various concentrations of Amlodipine for 72 hrs were added to WST-1 reagent. After 330 minutes of reaction, the absorbance at a wavelength of 420-480 nm was measured. The HepG2 and Hep3B cells treated with various concentrations of Amlodipine for 48 hrs were scraped off with 0.05% Trypsin-EDTA, and then added to 2 mg/ml PI solution. The cell viability was analyzed by flow cytometry.

liver cancer cells HepG2 = experiment: Cell cycle analysis by flow cytometry, HepG2; type: cell-based
Procedure: Two liver cancer cell lines HepG2 and Hep3B were cultured. The medium used for the culture of the cells was DMEM medium containing 10% fetal bovine serum, 10,000 U/ml penicillin and 10,000 μg/ml streptomycin. The culture occurred in an environment at 37° C. with 5% CO2, and the medium was changed every 2-3 days during the culture. After the cells were cultured to about 70% confluence, they were treated with various concentrations of Amlodipine: 0, 1.5625, 3.125, 6.25, 12.5, 25, and 50 μM for various times: 48, and 72 hrs. After the experiment, the viability of each liver cancer cell line was observed and the cell viability and cell cycle were analyzed. The cell cycle of each liver cancer cell line treated under different conditions was analyzed by flow cytometry. […] Still further, each liver cancer cell line was treated with Amlodipine at a concentration of 12.5 μM for 0, 12, 24, 36 and 48 hrs, and the cell cycle was analyzed by flow cytometry.

[6] = 24/30: Amlodipine at least 24 days within 30 days after cancer diagnosis
[7] = 48/60: Amlodipine at least 48 days within 60 days after cancer diagnosis
[8] = Amlodipine for 20 days within 90 days after diagnosis
[9] = day of treatment with Amlodipine 72/9
[10] = 12.5 μM Amlodipine, treatment time 12 hr
[11] = 12.5 μM Amlodipine, treatment time 24 hr
[12] = 12.5 μM Amlodipine, treatment time 36 hr
[13] = 12.5 μM Amlodipine, treatment time 48 hr

CCOC(=O)C1=C(COCCN)NC(C)=C(C(=O)OC)C1c1ccccc1Cl (stereo not drawn) [Amlodipine]
mortality of cancer patients (in words) (cancer patients; Table 1, at least 120 mg/30 days): effectively reduce the mortality of cancer patients
survival rate of cancer patients (in words) (cancer patients; Table 2, FIGS. 1-8, 100 mg in 90 days, follow-up 3 years, vs no Amlodipine): increase the survival rate of cancer patients
Crude HR HRs (95% C.I.) [1, 6]: 0.46 (0.44-0.49)
Crude HR HRs (95% C.I.) [1, 7]: 0.44 (0.42-0.47)
Crude HR HRs (95% C.I.) [1, 8]: 0.76 (0.72-0.80)
Crude HR HRs (95% C.I.) [1, 9]: 0.44 (0.42-0.47)
intracellular expression of apoptotic proteins (Western blotting) (Hep3B cells [2]): results in the intracellular expression of apoptotic proteins
Crude HR HRs (95% C.I.) [3, 6]: 0.66 (0.62-0.70)
Crude HR HRs (95% C.I.) [3, 7]: 0.62 (0.58-0.67)
Crude HR HRs (95% C.I.) [3, 8]: 0.85 (0.80-0.90)
Crude HR HRs (95% C.I.) [3, 9]: 0.62 (0.58-0.66)
Crude HR HRs (95% C.I.) [4, 6]: 0.55 (0.53-0.59)
Crude HR HRs (95% C.I.) [4, 7]: 0.54 (0.51-0.57)
Crude HR HRs (95% C.I.) ([4]; 72/90: Amlodipine at least 72 days within 90 days after cancer diagnosis): 0.55 (0.52-0.58)
Crude HR HRs (95% C.I.) [4, 8]: 0.73 (0.69-0.77)
Amlodipine concentration at which the best inhibitory effect on the growth of liver cancer cells is achieved (Hep3B cells [5]): greater than or equal to 12.5 μM
cell viability of liver cancer cells treated with Amlodipine (Hep3B cells [5]; 1.5625-50 μM, 48 and 72 hrs, FIGS. 10, 13-15): decreased
Proportion of cell distribution in cell cycle (%) M1: (liver cancer cells HepG2; 1.5625 μM Amlodipine, 48 hrs): 1.58%
Proportion of cell distribution in cell cycle (%) M2: (liver cancer cells HepG2; 1.5625 μM Amlodipine, 48 hrs): 70.28%
Proportion of cell distribution in cell cycle (%) M3: (liver cancer cells HepG2; 1.5625 μM Amlodipine, 48 hrs): 8.89%
Proportion of cell distribution in cell cycle (%) M4: (liver cancer cells HepG2; 1.5625 μM Amlodipine, 48 hrs): 19.34%
Proportion of cell distribution in cell cycle (%) M1: (liver cancer cells HepG2; 3.125 μM Amlodipine, 48 hrs): 1.36%
Proportion of cell distribution in cell cycle (%) M2: (liver cancer cells HepG2; 3.125 μM Amlodipine, 48 hrs): 69.60%
Proportion of cell distribution in cell cycle (%) M3: (liver cancer cells HepG2; 3.125 μM Amlodipine, 48 hrs): 8.91%
Proportion of cell distribution in cell cycle (%) M4: (liver cancer cells HepG2; 3.125 μM Amlodipine, 48 hrs): 20.23%
Proportion of cell distribution in cell cycle (%) M1: (liver cancer cells HepG2; 6.25 μM Amlodipine, 48 hrs): 1.91%
Proportion of cell distribution in cell cycle (%) M2: (liver cancer cells HepG2; 6.25 μM Amlodipine, 48 hrs): 66.92%
Proportion of cell distribution in cell cycle (%) M3: (liver cancer cells HepG2; 6.25 μM Amlodipine, 48 hrs): 10.28%
Proportion of cell distribution in cell cycle (%) M4: (liver cancer cells HepG2; 6.25 μM Amlodipine, 48 hrs): 21.01%
Proportion of cell distribution in cell cycle (%) M1: (liver cancer cells HepG2; 12.5 μM Amlodipine, 48 hrs): 81.27%
Proportion of cell distribution in cell cycle (%) M2: (liver cancer cells HepG2; 12.5 μM Amlodipine, 48 hrs): 12.49%
Proportion of cell distribution in cell cycle (%) M3: (liver cancer cells HepG2; 12.5 μM Amlodipine, 48 hrs): 3.31%
Proportion of cell distribution in cell cycle (%) M4: (liver cancer cells HepG2; 12.5 μM Amlodipine, 48 hrs): 2.95%
Proportion of cell distribution in cell cycle (%) M1: (liver cancer cells HepG2; [10]): 5.01%
Proportion of cell distribution in cell cycle (%) M2: (liver cancer cells HepG2; [10]): 76.16%
Proportion of cell distribution in cell cycle (%) M3: (liver cancer cells HepG2; [10]): 6.10%
Proportion of cell distribution in cell cycle (%) M4: (liver cancer cells HepG2; [10]): 12.87%
Proportion of cell distribution in cell cycle (%) M1: (liver cancer cells HepG2; [11]): 16.20%
Proportion of cell distribution in cell cycle (%) M2: (liver cancer cells HepG2; [11]): 65.01%
Proportion of cell distribution in cell cycle (%) M3: (liver cancer cells HepG2; [11]): 6.24%
Proportion of cell distribution in cell cycle (%) M4: (liver cancer cells HepG2; [11]): 12.69%
Proportion of cell distribution in cell cycle (%) M1: (liver cancer cells HepG2; [12]): 65.46%
Proportion of cell distribution in cell cycle (%) M2: (liver cancer cells HepG2; [12]): 22.64%
Proportion of cell distribution in cell cycle (%) M3: (liver cancer cells HepG2; [12]): 4.81%
Proportion of cell distribution in cell cycle (%) M4: (liver cancer cells HepG2; [12]): 7.22%
Proportion of cell distribution in cell cycle (%) M1: (liver cancer cells HepG2; [13]): 83.26%
Proportion of cell distribution in cell cycle (%) M2: (liver cancer cells HepG2; [13]): 11.13%
Proportion of cell distribution in cell cycle (%) M3: (liver cancer cells HepG2; [13]): 1.73%
Proportion of cell distribution in cell cycle (%) M4: (liver cancer cells HepG2; [13]): 3.93%
cell division (cell cycle, in words) (liver cancer cells HepG2; 12.5 μM or more, 48 hrs): most cells were unable to undergo cell division
Proportion of cell distribution in cell cycle (%) M1: (liver cancer cells HepG2; 25 μM Amlodipine, 48 hrs): 99.75%
Proportion of cell distribution in cell cycle (%) M2: (liver cancer cells HepG2; 25 μM Amlodipine, 48 hrs): 0.22%
Proportion of cell distribution in cell cycle (%) M3: (liver cancer cells HepG2; 25 μM Amlodipine, 48 hrs): 0.00%
Proportion of cell distribution in cell cycle (%) M4: (liver cancer cells HepG2; 25 μM Amlodipine, 48 hrs): 0.94%
